Results taken from publication PMC4066452 (Archives of biochemistry and biophysics, 2014).

Biological target: MtACS (Mycobacterium tuberculosis acetyl-CoA synthetase) (Mycobacterium tuberculosis, UniProt P9WQD1)
Test: biochemical

MtACS (Mycobacterium tuberculosis acetyl-CoA synthetase), sequence (P9WQD1 2-651): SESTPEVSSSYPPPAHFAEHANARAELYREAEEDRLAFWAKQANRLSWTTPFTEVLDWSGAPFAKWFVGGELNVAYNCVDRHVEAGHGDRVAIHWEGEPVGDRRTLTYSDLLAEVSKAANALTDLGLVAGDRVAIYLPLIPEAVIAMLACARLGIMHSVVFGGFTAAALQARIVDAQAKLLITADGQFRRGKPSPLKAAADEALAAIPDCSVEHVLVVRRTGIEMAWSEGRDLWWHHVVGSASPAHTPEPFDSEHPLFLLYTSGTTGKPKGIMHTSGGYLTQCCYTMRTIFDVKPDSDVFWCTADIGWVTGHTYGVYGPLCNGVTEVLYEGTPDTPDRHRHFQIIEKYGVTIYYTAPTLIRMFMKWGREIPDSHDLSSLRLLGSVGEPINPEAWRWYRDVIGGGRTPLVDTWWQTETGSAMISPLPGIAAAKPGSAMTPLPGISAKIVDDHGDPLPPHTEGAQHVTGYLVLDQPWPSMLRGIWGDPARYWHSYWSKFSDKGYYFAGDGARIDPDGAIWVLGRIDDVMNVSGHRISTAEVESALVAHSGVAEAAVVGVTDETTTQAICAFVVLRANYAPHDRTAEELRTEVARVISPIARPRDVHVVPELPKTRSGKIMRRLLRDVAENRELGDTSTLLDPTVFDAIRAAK

Work on Nc1ncnc2c1ncn2[C@@H]1O[C@H](COP(=O)(O)CP(=O)(O)OP(=O)(O)O)[C@@H](O)[C@H]1O [AMPCPP] yielded a Ki of 5 ± 0.8 mM.
